Data from paper PMC12627627 (Nature Communications, 2025).
Several values for one entry are separate records, joined by “and”; a condition that tells them apart may be missing. Identical values can stand only once.

Columns and labels:
RyR1-W881A R12 = molecular target: T1, RyR1-W881A R12 (Homo sapiens, UniProt P21817, W881A); assay: ITC, RyR1 R12 W881A; assay type: binding; conditions: RyR1-W881A R12, no nucleotide
T1 construct: RyR1 854–1054, RyR2 865–1065, RyR3 853–1053; made in house; host or cells: E. coli BL21 (DE3)
T1 sequence (P21817 854-1054 W881A): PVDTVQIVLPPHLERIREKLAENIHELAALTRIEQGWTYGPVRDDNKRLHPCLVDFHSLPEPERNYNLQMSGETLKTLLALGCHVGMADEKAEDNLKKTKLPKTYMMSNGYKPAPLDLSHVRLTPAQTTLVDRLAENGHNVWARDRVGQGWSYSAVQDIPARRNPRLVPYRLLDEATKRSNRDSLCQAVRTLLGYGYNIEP
Procedure: The plasmids were subsequently transformed into E. coli BL21 (DE3) cells (NEB, USA) and cultured in Luria-Bertani (LB) media at 37 °C. Protein expression was induced with 0.4 mM isopropyl β-D-thiogalactoside (IPTG) when the optical density (OD)600 reached ~0.8, followed by incubation at 18 °C for 12 h. The cells were harvested via centrifugation at 5,000 × g for 15 min at 4 °C and homogenized in Buffer A (10 mM HEPES, pH 7.4, 250 mM KCl) supplemented with 25 µg/mL DNaseI, 25 µg/mL lysozyme, 1 mM phenylmethylsulfonyl fluoride (PMSF), and 20 mM imidazole. The homogenate was centrifuged at 12,000 × g for 45 min, and the supernatant was filtered through a syringe filter (0.22 µm).
Purified R12 domain protein from the three RyR isoforms, fused with hexahistidine-tagged MBP (HMT-R12) was dialyzed overnight at 4 °C in ITC buffer (200 mM HEPES, pH 7.4, 150 mM KCl). ITC experiments were performed using a PEAQ-ITC instrument (Malvern, UK) at 25 °C with a stirring speed of 750 rpm. […] For the ternary binding experiments, 500 μM or 5 mM AMP-PCP/ADP was preincubated with both the titrants and titrates. […] The data was fit to a one-site fitting model after background buffer subtraction. The RyR1 R12 mutants were generated using a QuikChange mutagenesis kit (Stratagene) according to the manufacturer’s protocol, with primer sequences listed in Supplementary Table 3.

[1] = set-up: method as in PMID 1729917, PMID 2790379; conditions: water-soluble analog compared with DAN; cited from earlier work
WT RyR2 = assay: Time-lapse [Ca2+]ER measurement, HEK293 cells expressing WT RyR2; assay type: cell-based; conditions: for ER luminal [Ca2+] change (F/F0): Fig. 5D source data, single replicates
Procedure: (§1) HEK293 cells stably expressing R-CEPIA1er and RyRs (WT RyR1, RyR1-W881A, RyR1-W995A, RyR1-R2163C, and WT RyR2)[26],[27] were used in this study. Briefly, the cells were seeded at a density of 2 × 10⁴ cells/well in a 96-well black, clear-bottom plate (Corning). Doxycycline (2 µg/mL) was added 12 h after seeding, and the medium was replaced 24 h later with HEPES-buffered Krebs solution (5 mM HEPES, pH 7.4; 140 mM NaCl; 5 mM KCl; 2 mM CaCl₂; 1 mM MgCl₂; and 11 mM glucose). Fluorescence measurements were conducted using a FlexStation 3 fluorometer (Molecular Devices) at 37 °C. The R-CEPIA1er was excited at 560 nm, emitted at 610 nm, and captured every 10 seconds over 300 seconds. Different concentrations of compound, dissolved in buffer containing 1% DMSO, were added 100 s after recording began. The fluorescence changes (F/F₀) were calculated by dividing the average fluorescence of the last 100 seconds (F) by that of the first 100 seconds (F₀). All measurements were performed in triplicate.

RyR1 W995A = molecular target: T2, RyR1 W995A (Oryctolagus cuniculus, UniProt P11716, W996A); assay: Time-lapse [Ca2+]ER measurement, HEK293 cells expressing RyR1 W995A; assay type: cell-based; conditions: 4 mM caffeine; for ER luminal [Ca2+] change (F/F0): Fig. 5H source data, RyR1-W995A, single replicates
T2 construct: expressed in transfected cells
Procedure: as §1

WT RyR1 [2] = molecular target: T3, WT RyR1 (Oryctolagus cuniculus, UniProt P11716); assay: Ca2+-dependent [3H]ryanodine binding, microsomes; assay type: biochemical; conditions: for [3H]ryanodine binding (B/Bmax): Fig. 5C source data, RI-2 100 μM, single replicates
T3 construct: expressed in transfected cells
Procedure: The assay was performed as previously described[44],[45] with minor modifications. Briefly, microsomes from HEK293 cells stably expressing WT RyR1 were incubated with 5 nM [³H]ryanodine for 5 h at 25 °C in a medium containing 0.17 M NaCl, 20 mM MOPSO (pH 7.0), 2 mM dithiothreitol, 1 mM β,γ-methyleneadenosine 5′-triphosphate, and free Ca²⁺ buffered with 10 mM EGTA at varying concentrations. Free Ca²⁺ levels were calculated using WEBMAXC […][46]. Protein-bound [³H]Ryanodine (B) was isolated by filtration through polyethyleneimine-treated GF/B filters (Whatman) using a Micro 96 Cell Harvester (Skatron Instruments). Nonspecific binding was assessed by adding 20 µM unlabeled ryanodine. The maximum binding capacity of [³H]ryanodine (Bmax) was determined via Scatchard plot analysis with various concentrations (3–20 nM) of [³H]ryanodine in a high-salt medium containing 1 M NaCl. The resulting B/Bmax values represent the average activity of the cells.

WT RyR1 [3] = molecular target: T3, WT RyR1; assay: Time-lapse [Ca2+]ER measurement, HEK293 cells expressing WT RyR1; assay type: cell-based; conditions: Fig. 5H source data, 4 mM caffeine, single replicates

O=C1CN(/N=C/c2ncc(-c3ccc(Br)cc3)o2)C(=O)N1 [AZU, Azumolene]
Kd (RyR1-W881A R12): 358 ± 138 µM | No of Sites (N) (RyR1-W881A R12): 1.04 ± 0.35 | ΔH (RyR1-W881A R12): -35.60 kcal/mol | −TΔS (RyR1-W881A R12): 30.90 kcal/mol | solubility relative to DAN [1]: approximately 30 fold

O=C(C[C@@H](NCCCO)C(=O)O)Nc1ccc2ccccc2c1 [RI-2]
ER luminal [Ca2+] change (F/F0) (WT RyR2; RI-2 0.1 uM): 1.012 and 0.991 and 0.9966 | ER luminal [Ca2+] change (F/F0) (WT RyR2; RI-2 0.3 uM): 1.053 and 1.031 and 0.9893 | ER luminal [Ca2+] change (F/F0) (WT RyR2; RI-2 1 uM): 1.071 and 0.9532 and 1.019 | ER luminal [Ca2+] change (F/F0) (WT RyR2; RI-2 3 uM): 0.989 and 1.026 and 1.009 | ER luminal [Ca2+] change (F/F0) (WT RyR2; RI-2 10 uM): 1.0308 and 1.04 and 0.9817 | ER luminal [Ca2+] change (F/F0) (WT RyR2; RI-2 30 uM): 1.051 and 0.9858 and 1.027 | ER luminal [Ca2+] change (F/F0) (WT RyR2; RI-2 100 uM): 1.1169 and 1.011 and 1.1 | effect on ER luminal [Ca2+] (WT RyR2; dose-dependent [Ca2+]ER measurements): no significant effect | ER luminal [Ca2+] change (F/F0) (RyR1 W995A; RI-2 0.1 uM): 1.018 and 1 and 0.9822 | ER luminal [Ca2+] change (F/F0) (RyR1 W995A; RI-2 0.3 uM): 1.035 and 1.023 and 0.9731 | ER luminal [Ca2+] change (F/F0) (RyR1 W995A; RI-2 1 uM): 1.011 and 1.046 and 0.9965 | ER luminal [Ca2+] change (F/F0) (RyR1 W995A; RI-2 3 uM): 1.0547 and 1.017 and 1.01 | ER luminal [Ca2+] change (F/F0) (RyR1 W995A; RI-2 10 uM): 1.05 and 1.027 and 0.98 | ER luminal [Ca2+] change (F/F0) (RyR1 W995A; RI-2 30 uM): 1.073 and 0.9504 and 1.033 | ER luminal [Ca2+] change (F/F0) (RyR1 W995A; RI-2 100 uM): 0.9659 and 1.079 and 1.107 | inhibitory effect in time-lapse ER Ca2+ measurements (RyR1 W995A; RyR1 W995A): completely lost | effect on Ca2+-dependent [3H]ryanodine binding (WT RyR1 [2]; 100 uM RI-2): inhibitory effect | [3H]ryanodine binding (B/Bmax) (WT RyR1 [2]; pCa 2.04): 0.002952 (2×) and 0.002725 and -0.000227 | [3H]ryanodine binding (B/Bmax) (WT RyR1 [2]; pCa 2.67): 0.005451 and 0.006359 and 0.002952 and 0.002725 | [3H]ryanodine binding (B/Bmax) (WT RyR1 [2]; pCa 3.39): 0.01453 and 0.0134 and 0.008857 (2×) | [3H]ryanodine binding (B/Bmax) (WT RyR1 [2]; pCa 4.03): 0.02816 and 0.03452 and 0.02475 and 0.02703 | [3H]ryanodine binding (B/Bmax) (WT RyR1 [2]; pCa 4.66): 0.04474 and 0.04315 and 0.03702 and 0.03429 | [3H]ryanodine binding (B/Bmax) (WT RyR1 [2]; pCa 5.03): 0.04565 and 0.04292 and 0.03884 and 0.03702 | [3H]ryanodine binding (B/Bmax) (WT RyR1 [2]; pCa 5.42): 0.0293 and 0.03838 and 0.02362 and 0.0243 | [3H]ryanodine binding (B/Bmax) (WT RyR1 [2]; pCa 6): 0.009312 and 0.01272 and 0.009084 and 0.003634 | [3H]ryanodine binding (B/Bmax) (WT RyR1 [2]; pCa 6.54): 0.005678 and 0.003861 and -0.000454 and 0.00159 | [3H]ryanodine binding (B/Bmax) (WT RyR1 [2]; pCa 6.97): 0.004088 and 0.006813 and 0.002044 and 0.0009084 | [3H]ryanodine binding (B/Bmax) (WT RyR1 [2]; pCa 7.49): 0.001136 and 0.002044 (2×) and 0.001363 | Kd (RyR1-W881A R12): 292 ± 22.5 µM | No of Sites (N) (RyR1-W881A R12): 0.94 ± 0.46 | ΔH (RyR1-W881A R12): -10.7 ± 3.83 kcal/mol | −TΔS (RyR1-W881A R12): 4.71 kcal/mol | ER luminal [Ca2+] change (F/F0) (WT RyR1 [3]; RI-2 0.1 uM): 0.9624 and 0.9803 and 0.9793 | ER luminal [Ca2+] change (F/F0) (WT RyR1 [3]; RI-2 0.3 uM): 0.9865 and 0.9725 and 0.9809 | ER luminal [Ca2+] change (F/F0) (WT RyR1 [3]; RI-2 1 uM): 1.001 and 1.0002 and 0.9956 | ER luminal [Ca2+] change (F/F0) (WT RyR1 [3]; RI-2 3 uM): 1.043 and 1.036 and 1.039 | ER luminal [Ca2+] change (F/F0) (WT RyR1 [3]; RI-2 10 uM): 1.092 and 1.122 and 1.066 | ER luminal [Ca2+] change (F/F0) (WT RyR1 [3]; RI-2 30 uM): 1.229 and 1.248 and 1.218 | ER luminal [Ca2+] change (F/F0) (WT RyR1 [3]; RI-2 100 uM): 1.681 and 1.622 and 1.659
